We go through 36 compounds from patent US5100879A, “Method of topically cleansing the human body” (K.K. Ueno Seiyaku Oyo Kenkyujo, priority 1987, dated 1992).

Where two headings read alike, the source gives them in different places. Bounds are passed on as bounds.

Series [1] relates to HTLV-III. Nature of the series: Anti-AIDS activity, infected cell rate of MT-4 cells infected with HTLV-III at the 6th day (Example 9). To be noted: for anti-AIDS virus activity, in words: Example 9. It is filed as cell-based. The procedure: To MT-4 cells (30×10^4 /ml) cultured in RPMI-1640 medium containing 10% bovine serum, was inoculated HTLV-III, and the suspension was incubated at 37° C. for 1 hour to cause the adsorption of the virus. The cell:virus ratio was 500:1. The cells were then washed, and cultured with or without various doses of the test substances (same as those of Example 1) at 37° C. under 5% CO2 for 3 days, after which cell growth, viability, and percentage of infected cells were recorded. The infected cells were distinguished from the uninfected cells by an indirect immuno-fluorescence method. Thus, the cultured cells were fixed with cold methanol on a slide glass, reacted with antibody to the HTLV-III-specific antigens, and further with the secondary antibody (having a fluororescent label). The results are shown in FIGS. 9-29, wherein, .gradient., .increment. and .quadrature. show the controls without virus, and show the infection experiments with HTLV-III. The cell growth is indicated in number of cells, the viability (%) in number of viable cells ×100/number of total cells, and the infected cell rate (%) in number of fluorescent-positive cells x 100/number of total cells.
In order to examine the correlation between the anti-AIDS virus activity and the molecular structure (especially, molecular weight and S-content or number of sulfate group in this case) of various test substances including those used in Examples 1-7, the anti-AIDS activities were evaluated for the various naturally occurring polysaccharides, polysaccharides having a sulfate group, mucopolysaccharides, mucopolysaccharide sulfate, and mucopolysaccharide polysulfate. Further, similar experiments were carried out with various other sulfates which were synthetically obtained. The experimental procedures employed are identical to that in the preceding experiments. The cultured MT-4 cells were infected with HTLV-III and the inhibitory effects of various test substances on the infected cell rate (number of fluorescent cell×100/ total cell, %) were determined at the 6th day.

In series [2] the test system is MT-4 cells. Nature of the series: Cytotoxicity, MT-4 cells cultured without virus (Examples 4 and 8). It is filed as cell-based, human. To be noted: without virus; for Viability: 0 μg/ml gives 87; for Cell number: 0 μg/ml gives 124. The source says: The cell:virus ratio was 500:1. […] The infected cells were distinguished from the uninfected cells by an indirect immuno-fluorescence method. Thus, the cultured cells were fixed with cold methanol on a slide glass, reacted with antibody to the HTLV-III-specific antigens, and further with the secondary antibody (having a fluororescent label). […] The cell growth is indicated in number of cells, the viability (%) in number of viable cells ×100/number of total cells, and the infected cell rate (%) in number of fluorescent-positive cells x 100/number of total cells.

Series [3] relates to mice. As to conditions: cited from earlier work.
The mark [4] stands for this setting: 10 μg/ml, 6th day, control without test substance 100%.
Where [5] appears, read: 100 μg/ml, 6th day, control without test substance 100%.
The mark [6] stands for this setting: 10 μg/ml, 6th day, control without test substance 100%, 8640 min.
The mark [7] stands for this setting: 100 μg/ml, 6th day, control without test substance 100%, 8640 min.
[8] abbreviates: 1000 μg/ml, 6th day, control without test substance 100%.
Setting [9] is: 1 μg/ml, listed as Sodium dextran sulfate (molecular weight: 5000, S-content: 13%).
The mark [10] stands for this setting: 10 μg/ml, listed as Sodium dextran sulfate (molecular weight: 5000, S-content: 13%).
Setting [11] is: 100 μg/ml, listed as Sodium dextran sulfate (molecular weight: 5000, S-content: 13%).

The compound `O=C[C@H](O)[C@@H](O)[C@H](O)[C@H](O)COS(=O)(=O)O` [Glucose-6-sulfate, reference compound] gave an activity at 10 µg/mL in series [1] (Human immunodeficiency virus 1, MT4, 144 h, 10 μg/ml, 6th day, control without test substance 100%) of 100%. Also, the activity at 100 µg/mL in series [1] (Human immunodeficiency virus 1, MT4, 144 h, 100 μg/ml, 6th day, control without test substance 100%) was 100%. For the same compound, the activity at 1000 µg/mL in series [1] (Human immunodeficiency virus 1, MT4, 144 h, 1000 μg/ml, 6th day, control without test substance 100%) was 100%.
`OC[C@H]1O[C@H](OC[C@H]2O[C@H](O[C@]3(CO)O[C@H](CO)[C@@H](O)[C@@H]3O)[C@H](O)[C@@H](O)[C@@H]2O)[C@H](O)[C@@H](O)[C@H]1O` [raffinose, reference compound]: the “anti-AIDS virus activity, in words” value in series [1] is “None”.
In the case of .iota.-Carrageenan, the results for the “Infected cell (%)” value in series [1] (setting [4]) and in series [1] (setting [5]) were 100% and 31%, respectively. Besides, the Viability in series [2] (1 μg/ml) came to 94%; in series [2] (10 μg/ml) it was 93%; in series [2] (100 μg/ml) it was 80%. In addition, the Cell number is given as 135 ×10^4 cells/ml in series [2] (1 μg/ml), 128 ×10^4 cells/ml in series [2] (10 μg/ml) and 144 ×10^4 cells/ml in series [2] (100 μg/ml).
On to Agarose [reference compound], for which the “Infected cell (%)” value in series [1] (setting [4]) and in series [1] (setting [5]) was 100% in each case.
For the compound Alginic acid [reference compound], the “Infected cell (%)” value in series [1] (setting [4]) and in series [1] (setting [5]) was 100% each time.
In the case of Alginic acid sulfate, the “Infected cell (%)” value is on record as 7% in series [1] (setting [4]) and 4% in series [1] (setting [5]). The “anti-AIDS virus activity, in words” value in series [1] was “particularly strong”.
As for Chitin [reference compound], the “Infected cell (%)” value in series [1] (setting [4]) and in series [1] (setting [5]) was 100% throughout.
For Chitin sulfate, the “Infected cell (%)” value in series [1] (setting [4]) is 100%; in series [1] (setting [5]), 81%.
For Chitosan [reference compound], the “Infected cell (%)” value in series [1] (setting [4]) and in series [1] (setting [5]) was 100% each time.
Turning to Chitosan sulfate, the “Infected cell (%)” value in series [1] (setting [4]) and in series [1] (setting [5]) was 1% each time. Besides, in series [1], the “anti-AIDS virus activity, in words” value is “particularly strong”.
Regarding Chondroitin [reference compound], the “Infected cell (%)” value in series [1] (setting [4]) and in series [1] (setting [5]) was 100% in each case.
As for “Chondroitin-4-sulfate [reference compound]”, the “Infected cell (%)” value in series [1] (setting [4]) and in series [1] (setting [5]) was 100% in each case.
On to Chondroitin-4-sulfate polysulfate, for which the “Infected cell (%)” value in series [1] (setting [4]) amounted to 2%; in series [1] (setting [5]) it was 1%. Further, in series [1], the “anti-AIDS virus activity, in words” value is listed as “particularly strong”.
Take “Chondroitin-6-sulfate [reference compound]”: the “Infected cell (%)” value in series [1] (setting [4]) and in series [1] (setting [5]) was 100% in each case.
Turning to Chondroitin-6-sulfate polysulfate, the “Infected cell (%)” value amounted to 2% in series [1] (setting [4]) and 1% in series [1] (setting [5]). Moreover, the “anti-AIDS virus activity, in words” value in series [1] is recorded as “particularly strong”.
For the compound Dermatan sulfate [reference compound], the “Infected cell (%)” value was determined as 100% in series [1] (setting [4]) and 80% in series [1] (setting [5]).
For “Dextran [Dextran 9,000, reference compound]”, the “Infected cell (%)” value in series [1] (setting [4]) and in series [1] (setting [5]) was 100% each time.
For the compound Dextran sulfate [Dextran sulfate 3,500], the “Infected cell (%)” value came to 100% in series [1] (setting [6]), 82% in series [1] (setting [7]) and 1% in series [1] (setting [8]).
For the compound Dextran sulfate [Dextran sulfate 5,000], the “Infected cell (%)” value in series [1] (setting [6]) was 18%; in series [1] (setting [7]) it was 0%. In addition, the Viability in series [2] (setting [9]) amounted to 90%; in series [2] (setting [10]) it was 92%; in series [2] (setting [11]), 93%. Further, the Cell number in series [2] (setting [9]) is reported as 123 ×10^4 cells/ml; in series [2] (setting [10]) it was 127 ×10^4 cells/ml; in series [2] (setting [11]) it was 121 ×10^4 cells/ml.
In the case of Dextran sulfate [Dextran sulfate 8,000], the “Infected cell (%)” value in series [1] (setting [6]) is recorded as 25%; in series [1] (setting [7]), 0%.
On the same counts, the results for “Dextran sulfate [Dextran sulfate 500,000]” are 20% and 0%.
Turning to Fucoidin, the “Infected cell (%)” value in series [1] (setting [4]) worked out at 32%; in series [1] (setting [5]) it was 1%. Also, the Viability in series [2] (1 μg/ml) is recorded as 92%; in series [2] (10 μg/ml), 99%; in series [2] (100 μg/ml), 93%. The Cell number in series [2] (1 μg/ml) was 141 ×10^4 cells/ml; in series [2] (10 μg/ml), 112 ×10^4 cells/ml; in series [2] (100 μg/ml) it was 71 ×10^4 cells/ml.
Consider “Glucose-polysulfate [reference compound]”, for which the “Infected cell (%)” value in series [1] (setting [4]), in series [1] (setting [5]) and in series [1] (setting [8]) was 100% throughout.
Regarding Heparitin sulfate [reference compound], the “Infected cell (%)” value in series [1] (setting [4]) turned out to be 100%; in series [1] (setting [5]) it was 90%.
As for Hyaluronic acid [reference compound], the “Infected cell (%)” value in series [1] (setting [4]) and in series [1] (setting [5]) was 100% in each case.
Take Hyaluronic acid sulfate: the “Infected cell (%)” value in series [1] (setting [4]) amounted to 100%; in series [1] (setting [5]) it was 70%.
On the same counts, the results for Keratan sulfate [reference compound] are 100% and 80%.
As for “N-acetylglucosamine polysulfate [reference compound]”, the “Infected cell (%)” value in series [1] (setting [4]), in series [1] (setting [5]) and in series [1] (setting [8]) was 100% each time.
As to colominic acid [reference compound], the “anti-AIDS virus activity, in words” value in series [1] is given as “None”.
The same measure, in the same setting: under dextran sulfate stands “particularly strong”; under inulin [reference compound], “None”.
Consider methylcellulose [reference compound], for which the “anti-AIDS virus activity, in words” value in series [1] is recorded as “None”.
Consider pectin [reference compound], for which the “anti-AIDS virus activity, in words” value in series [1] is given as “None”.
With sodium chondroitin sulfate, the results for the “acute toxicity (LD50)” value in series [3] (intraperitoneally) and in series [3] (orally) were ≥ 4,000 mg/kg and ≥ 7,500 mg/kg, respectively.
κ-Carrageenan: the entries for the “Infected cell (%)” value in series [1] (setting [4]) and in series [1] (setting [5]) were 95% and 1%, respectively. Also, the Viability is given as 93% in series [2] (1 μg/ml), 93% in series [2] (10 μg/ml) and 92% in series [2] (100 μg/ml). Besides, the Cell number in series [2] (1 μg/ml) is listed as 147 ×10^4 cells/ml; in series [2] (10 μg/ml), 149 ×10^4 cells/ml; in series [2] (100 μg/ml) it was 111 ×10^4 cells/ml.
As for λ-Carrageenan, the “Infected cell (%)” value in series [1] (setting [4]) is recorded as 3%; in series [1] (setting [5]), 1%. Further, the “anti-AIDS virus activity, in words” value in series [1] is “particularly strong”. The Viability in series [2] (1 μg/ml) is on record as 89%; in series [2] (10 μg/ml) it was 94%; in series [2] (100 μg/ml) it was 94%. The values for the Cell number in series [2] (1 μg/ml), in series [2] (10 μg/ml) and in series [2] (100 μg/ml) were 147 ×10^4 cells/ml, 203 ×10^4 cells/ml and 83 ×10^4 cells/ml, respectively.
